Patent US4845080A, “Human calcitonin peptide with salmon calcitonin-like characteristics” (Ciba-Geigy Corporation, priority 1983, dated 1989)

What was measured:
[1] = target: antibody serum to synthetic sCT; assay: Radioimmunoassay with antibodies to synthetic sCT, inhibition of [125I]sCT binding; set-up: species or system goat
Protocol: The concentration of hCT 2 is determined radioimmunologically in a concentration series. 10, 20, 50 and 100 μl, respectively, of the HPLC fractions, which have been aftertreated as described above, are preincubated for 3 days at 4° C. together with 100 μl of antibody serum to synthetic sCT (Sandoz AG, Basle, Switzerland) in an immunoassay buffer with a total volume of 300 μl (immunoassay buffer: 0.05M phosphate, pH 7.5, 10% of human serum containing no detectable amounts of immunoreactive sCT), and, after the addition of 200 μl of assay buffer having 15,000 dpm of [^125 I]sCT (specific activity 600 Ci/mmol), subsequently incubated for a further 3 days at 4° C. The labelling of sCT with ^125 I is performed with Chloramin-T (Eastman Kodak, Rochester, USA) essentially according to the method of W. M. Hunter and F. C.
The above-mentioned antibody serum is obtained as follows: The antibodies are produced in a 25 kg goat after primary immunisation with 200 μg of sCT (see above) as antigen, and reimmunisation with 100 μg of the same antigen 30 days after the primary immunisation. For immunisation, sCT is dissolved in 0.01M acetic acid (1 mg/ml), the solution is mixed with 2 percent by weight of solid aluminium hydroxide (Alhydrogel, Superfos Export Co. a/s Copenhagen, Denmark) and the mixture is suspended in an equal volume of complete Freund's adjuvant (Difco Laboratories, Detroit, Mich., USA). This suspension is produced in an Omnimixer (Sorvall) at 4° C. at the maximum mixing rate. 0.5-1.0 ml of suspension is drawn up into disposable syringes (Primo 1 ml, Asik I/S, Denmark), and administered on each leg subcutaneously in the region of the subaxillary lymph nodes. Ten days after the abovementioned reimmunisation, 50-80 ml of blood containing the desired antibodies against sCT are withdrawn from the jugular vein into heparinised tubes, and the plasma obtained is stored at -20° C. in 3-5 ml portions.
(§1) The quantity of antibodies obtained is estimated by measurement of the binding of the withdrawn plasma to [^125 I] sCT. Antibody-bound and free [^125 I]sCT are separated by means of charcoal coated with dextran, in the main according to the method of V. Herbert, K.-S. Lau, C. W. Gottlieb and S. J. Bleicher [J. Clin. Endocrinol. Metab. 25, 1375-1384 (1965)]. The same method is used for the detection of antibodies in human serum.

[2] = Detection of antibodies able to react with sCT in human serum (binding to [125I]sCT); conditions: verified with radioimmunoassay
Excerpt: (c) in the human serum no initiation of the formation of detectable amounts of antibodies which are able to react with sCT, the binding to [^125 I]sCT having a specific activity of 600 Ci/mmol being used for verfying this evidence;
The substance hCT 2 differs from the known hCT in the aforementioned HPLC system by virtue of a clearly different retention time; on the other hand, hCT 2 has a retention time practically identical to that of sCT. In the aforementioned gel system, the elution volume of hCT 2 differs from that of hCT, but is practically identical to that of sCT. These facts indicate that hCT 2 with respect to the amino acid composition, even though not necessarily with respect to the amino acid sequence, is more closely related to sCT than to hCT. With regard to immunology, however, hCT 2 differs greatly from sCT.
as §1

CC[C@H](C)[C@H](NC(=O)[C@H](C)NC(=O)[C@@H](NC(=O)[C@H](CCC(N)=O)NC(=O)[C@@H]1CCCN1C(=O)[C@H](Cc1ccccc1)NC(=O)[C@@H](NC(=O)[C@H](Cc1c[nH]cn1)NC(=O)[C@H](Cc1ccccc1)NC(=O)[C@H](CCCCN)NC(=O)[C@H](CC(N)=O)NC(=O)[C@H](Cc1ccccc1)NC(=O)[C@H](CC(=O)O)NC(=O)[C@H](CCC(N)=O)NC(=O)[C@@H](NC(=O)[C@H](Cc1ccc(O)cc1)NC(=O)[C@@H](NC(=O)CNC(=O)[C@H](CC(C)C)NC(=O)[C@H](CCSC)NC(=O)[C@@H]1CSSC[C@H](N)C(=O)NCC(=O)N[C@@H](CC(N)=O)C(=O)N[C@@H](CC(C)C)C(=O)N[C@@H](CO)C(=O)N[C@@H]([C@@H](C)O)C(=O)N1)[C@@H](C)O)[C@@H](C)O)[C@@H](C)O)[C@@H](C)O)C(=O)NCC(=O)N[C@H](C(=O)NCC(=O)N[C@@H](C)C(=O)N1CCC[C@H]1C(N)=O)C(C)C [hCT, human calcitonin-(1-32)]
amount not giving comparable (half maximum) inhibition of the binding of [125I]sCT to the antibodies ([1]; antibody final dilution 1:25,000): > 10 µg

CC(C)C[C@H](NC(=O)[C@H](CCCCN)NC(=O)CNC(=O)[C@H](CC(C)C)NC(=O)[C@@H](NC(=O)[C@@H]1CSSC[C@H](N)C(=O)N[C@@H](CO)C(=O)N[C@@H](CC(N)=O)C(=O)N[C@@H](CC(C)C)C(=O)N[C@@H](CO)C(=O)N[C@@H]([C@@H](C)O)C(=O)N1)C(C)C)C(=O)N[C@@H](CO)C(=O)N[C@@H](CCC(N)=O)C(=O)N[C@@H](CCC(=O)O)C(=O)N[C@@H](CC(C)C)C(=O)N[C@@H](Cc1c[nH]cn1)C(=O)N[C@@H](CCCCN)C(=O)N[C@@H](CC(C)C)C(=O)N[C@@H](CCC(N)=O)C(=O)N[C@H](C(=O)N[C@@H](Cc1ccc(O)cc1)C(=O)N1CCC[C@H]1C(=O)N[C@@H](CCCNC(=N)N)C(=O)N[C@H](C(=O)N[C@@H](CC(N)=O)C(=O)N[C@H](C(=O)NCC(=O)N[C@@H](CO)C(=O)NCC(=O)N[C@H](C(=O)N1CCC[C@H]1C(N)=O)[C@@H](C)O)[C@@H](C)O)[C@@H](C)O)[C@@H](C)O [sCT, salmon calcitonin-(1-32)]
formation of antibodies in the human serum [2]: produces in the human serum an antibody response
half maximum inhibition of the binding of [125I]sCT to the antibodies ([1]; antibody final dilution 1:25,000, 15,000 dpm [125I]sCT, 4° C., amount per tube): about 100 pg
concentration at which the antibodies react with sCT compared with hCT, which they do not recognise ([1]; lower concentration for sCT): ≤ 10^5 fold
half maximum inhibition of the binding of [125I]sCT to the antibodies ([1]; same value given in pmol): 0.03 pmol
